{"source": "patent US20050159460A1", "about": "“Peptide isosteres containing a heterocycle useful in the treatment of alzheimer's disease” (Elan Pharmaceuticals, priority 2001, published 2005)"}
{"smiles": "CC(C)(C)OC(=O)[C@@H](C(N)c1ccccc1)[C@@H](O)C[C@@H](Cc1ccccc1)c1ncc2n1C(O)C(C)(C)C2=O", "note": "(stereo partly drawn) [Example 31, 3-[(1R,3S,4S)-1-benzyl-4-t-butoxycarbonyl-amino-3-hydroxy-5-phenylpentyl]-6,6-dimethyl-5-hydroxy-pyrrolo-[1,2-c]-imidazol-7-one]", "values": [{"measurement": "melting point", "value": "88 to 90", "unit": "°C"}]}
